Test results taken from the supplement of paper PMC10307832.

Key:
Experiment in all cases: relative viability (nuclei count vs DMSO), 5 days (fraction); higher = more cells survive
[1] = compound: CC1CC(=O)N(C2=CN=C(N=C2N1C3CCCC3)NC4=C(C=C(C=C4)C(=O)NC5CCN(CC5)C)OC)C [NPK76-II-72-1] + CC1(C)CCC(c2ccc(Cl)cc2)=C(CN2CCN(c3ccc(C(=O)NS(=O)(=O)c4ccc(N[C@H](CCN5CCOCC5)CSc5ccccc5)c(S(=O)(=O)C(F)(F)F)c4)cc3)CC2)C1 [Navitoclax] (partner 0.5 µM)
How it was run: (§1)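 Values are medians from duplicate plates. Each reflects relative viability, defined as the nuclei count of treated wells over that of vehicle wells. Lung cancer cell lines in 1536-well plates were pin-tool dosed one day after seeding with one drug alone or with a fixed anchor-drug dose plus five library-drug doses (not always all listed) in √10 steps, then fixed, stained and imaged at 4× after 5 days.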

[2] = compound: CC1CC(=O)N(C2=CN=C(N=C2N1C3CCCC3)NC4=C(C=C(C=C4)C(=O)NC5CCN(CC5)C)OC)C [NPK76-II-72-1] + N=C(N)NC(=N)NCCc1ccccc1 [Phenformin] (partner 250 µM)
How it was run: as §1

BI-2536 + Luminespib = compound: CC[C@@H]1C(=O)N(C)c2cnc(Nc3ccc(C(=O)NC4CCN(C)CC4)cc3OC)nc2N1C1CCCC1 [BI-2536] + CCNC(=O)c1noc(-c2cc(C(C)C)c(O)cc2O)c1-c1ccc(CN2CCOCC2)cc1 [Luminespib] (partner 0.01 µM)
How it was run: as §1

BI-2536 + Alpelisib = compound: CC[C@@H]1C(=O)N(C)c2cnc(Nc3ccc(C(=O)NC4CCN(C)CC4)cc3OC)nc2N1C1CCCC1 [BI-2536] + Cc1nc(NC(=O)N2CCC[C@H]2C(N)=O)sc1-c1ccnc(C(C)(C)C(F)(F)F)c1 [Alpelisib] (partner 2 µM)
How it was run: as §1

| Cell Line | relative viability ([1]; first compound 0.01 µM) | relative viability ([1]; first compound 0.03162 µM) | relative viability ([1]; first compound 0.1 µM) | relative viability ([1]; first compound 0.3162 µM) | relative viability ([1]; first compound 1 µM) | relative viability ([2]; first compound 0.01 µM) | relative viability ([2]; first compound 0.03162 µM) | relative viability ([2]; first compound 0.1 µM) | relative viability ([2]; first compound 0.3162 µM) | relative viability ([2]; first compound 1 µM) | relative viability (BI-2536 + Luminespib; first compound 0.01 µM) | relative viability (BI-2536 + Luminespib; first compound 0.03162 µM) | relative viability (BI-2536 + Luminespib; first compound 0.1 µM) | relative viability (BI-2536 + Luminespib; first compound 0.3162 µM) | relative viability (BI-2536 + Luminespib; first compound 1 µM) | relative viability (BI-2536 + Alpelisib; first compound 0.01 µM) | relative viability (BI-2536 + Alpelisib; first compound 0.03162 µM) | relative viability (BI-2536 + Alpelisib; first compound 0.1 µM) | relative viability (BI-2536 + Alpelisib; first compound 0.3162 µM) | relative viability (BI-2536 + Alpelisib; first compound 1 µM) |
| --- | --- | --- | --- | --- | --- | --- | --- | --- | --- | --- | --- | --- | --- | --- | --- | --- | --- | --- | --- | --- |
| LU99A | 0.804 | 0.766 | 0.785 | 0.889 | 0.692 | 0.829 | 0.814 | 0.855 | 0.838 | 0.95 | 0.251 | 0.254 | 0.194 | 0.159 | 0.241 | 0.53 | 0.515 | 0.209 | 0.146 | 0.179 |
| LXF-289 | 0.877 | 0.964 | 0.954 | 0.88 | 0.941 | 0.531 | 0.587 | 0.503 | 0.516 | 0.497 | 0.624 | 0.533 | 0.319 | 0.0739 | 0.0875 | 1.02 | 0.975 | 0.519 | 0.0396 | 0.0625 |
| NCI-H23 | 0.774 | 1.08 |  | 0.675 | 0.784 | 0.752 | 0.788 | 0.684 | 0.718 | 0.85 | 0.231 | 0.212 | 0.182 | 0.225 | 0.236 | 0.734 | 0.737 | 0.369 | 0.139 | 0.135 |
| NCI-H322M | 1.19 | 1.2 | 1.18 | 1.24 | 1.32 | 0.706 | 0.935 | 0.778 | 0.817 | 0.829 | 0.844 | 0.509 | 0.439 | 0.409 | 0.303 | 0.912 | 0.881 | 0.811 | 0.618 | 0.269 |
| NCI-H441 | 0.634 | 0.946 | 0.671 | 0.533 | 0.73 | 0.945 | 0.917 | 0.876 | 0.672 | 0.886 | 0.296 | 0.32 | 0.288 | 0.237 | 0.271 | 0.613 | 0.235 | 0.148 | 0.168 | 0.178 |
| NCI-H460 | 1.17 | 1.45 | 1.19 | 1.18 | 1.23 | 0.501 | 0.512 | 0.582 | 0.522 | 0.522 | 0.0287 | 0.0394 | 0.0295 | 0.0298 | 0.0252 | 0.523 | 0.481 | 0.0303 | 0.0093 | 0.0065 |
| NCI-H520 | 0.927 | 1.05 | 1.01 | 1.04 | 1.03 | 0.526 | 0.632 | 0.46 | 0.519 | 0.598 | 0.242 | 0.199 | 0.194 | 0.206 | 0.214 | 0.833 | 0.828 | 0.315 | 0.201 | 0.154 |
| NCI-H596 | 0.862 | 1.01 | 0.828 | 0.965 | 1.04 | 0.649 | 0.777 | 0.789 | 0.782 | 0.774 | 1.02 | 1.12 | 0.986 | 0.37 | 0.29 | 0.409 | 0.46 | 0.535 | 0.305 | 0.304 |
| NCI-H647 | 0.986 | 1.05 | 1.23 | 1.11 | 1.2 | 0.46 | 0.676 | 0.629 | 0.623 | 0.533 | 0.13 | 0.193 | 0.141 | 0.0872 | 0.116 | 1.19 | 0.57 | 0.571 | 0.0897 | 0.091 |
| NCI-H727 | 0.372 | 0.397 | 0.572 | 0.494 | 0.652 | 0.49 | 0.435 | 0.481 | 0.411 | 0.672 | 0.589 | 0.324 | 0.263 | 0.4 | 0.201 | 0.616 | 0.636 | 0.453 | 0.245 | 0.238 |
| NCI-H838 | 1.11 | 1.19 | 1.19 | 1.09 | 1.11 | 0.532 | 0.585 | 0.657 | 0.629 | 0.556 | 0.357 | 0.307 | 0.146 | 0.125 | 0.114 | 0.967 | 1 | 0.661 | 0.124 | 0.144 |
| NCI-H1355 | 0.881 | 0.959 | 0.928 | 0.871 | 0.993 | 0.408 | 0.458 | 0.455 | 0.45 | 0.456 | 0.612 | 0.547 | 0.546 | 0.2 | 0.187 | 0.701 | 0.797 | 0.753 | 0.226 | 0.17 |
| NCI-H1395 | 0.994 | 1.14 | 1.24 | 1.46 | 1.25 | 0.466 | 0.422 | 0.457 | 0.429 | 0.405 | 0.582 | 0.605 | 0.511 | 0.361 | 0.339 | 0.958 | 0.502 | 0.43 | 0.499 | 0.369 |
| NCI-H1437 | 1.17 | 1.11 | 0.967 | 0.978 | 1.13 | 0.312 | 0.288 | 0.297 | 0.293 | 0.333 | 1.14 | 0.961 | 0.729 | 0.2 | 0.164 | 0.981 | 0.742 | 0.422 | 0.113 | 0.0916 |
| NCI-H1651 | 0.915 | 1.04 | 1.11 | 0.953 | 1.1 | 0.377 | 0.314 | 0.314 | 0.307 | 0.318 | 0.689 | 1.04 | 0.333 | 0.146 | 0.139 | 0.93 | 0.828 | 0.558 | 0.0805 | 0.0804 |
